PubChem BioAssay AID588401 (Johns Hopkins Ion Channel Center, 2011)
The source made the active and inactive calls.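 Rule for the calls: active = blocks the choline transporter at some tested dose and yields a fitted dose response curve; inconclusive = no clear call, values can overlap the other calls; inactive = no blocking at any dose or no curve.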

biological target: High affinity choline transporter 1 (Homo sapiens) (UniProt Q9GZV3); test: CHT inhibitors, dose response, cell-based, 10-point CRC, membrane potential dye (AID 588401); conditions: HEK293-CHT, choline-induced depolarization, at 25 µM (top of the series)
Sequence (Q9GZV3 whole entry, looked up): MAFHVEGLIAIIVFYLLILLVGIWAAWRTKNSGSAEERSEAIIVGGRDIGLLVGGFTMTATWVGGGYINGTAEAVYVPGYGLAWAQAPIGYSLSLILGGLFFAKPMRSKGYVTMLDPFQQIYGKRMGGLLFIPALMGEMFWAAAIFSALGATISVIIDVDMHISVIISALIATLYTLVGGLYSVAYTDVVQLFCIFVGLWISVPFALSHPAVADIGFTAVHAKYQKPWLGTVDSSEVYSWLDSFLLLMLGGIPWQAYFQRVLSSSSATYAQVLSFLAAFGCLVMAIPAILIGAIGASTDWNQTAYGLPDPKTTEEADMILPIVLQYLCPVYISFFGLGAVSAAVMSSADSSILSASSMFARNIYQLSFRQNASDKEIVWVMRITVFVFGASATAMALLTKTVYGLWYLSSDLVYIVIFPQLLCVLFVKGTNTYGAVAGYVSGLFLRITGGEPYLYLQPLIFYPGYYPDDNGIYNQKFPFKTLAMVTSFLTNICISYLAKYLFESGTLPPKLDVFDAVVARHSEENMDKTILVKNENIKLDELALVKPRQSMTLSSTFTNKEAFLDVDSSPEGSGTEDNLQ

Row | SMILES | inhibition (negative values = inhibition)
1 | C=CCn1c(O)c(C(CC)=NC(C)c2ccccc2)c(=O)[nH]c1=O (configuration not stated) | inactive

same assay, conditions: HEK293-CHT, choline-induced depolarization, at 25 µM (top of the series), cells express LV-AA mutant CHT

Row | SMILES | inhibition (negative values = inhibition)
2 | Cc1ccc(C(=O)NC2CCCC(C)C2C)cc1S(=O)(=O)N1CCCCC1 (configuration not stated) | inactive
3 | Cc1ccccc1-n1c(C)cc(/C=N/NC(=O)c2ccc(CN3CCOCC3)cc2)c1C | inactive
4 | COC(=O)/C(=C/c1c[nH]c2ccccc12)[N+](=O)[O-] | inactive
5 | Cc1nn(-c2ccccc2)c2[nH]c(=O)cc(C(F)(F)F)c12 | inactive
6 | CN(C)CCCn1c(=O)n(C2CCCCC2)c(=O)c2c3c(sc21)CCCCC3 | inactive
7 | N#CC(C#N)=C(Nc1ccc(F)cc1)SCc1cccc(F)c1 | inactive
8 | O=[N+]([O-])c1cc(Cc2ccccc2)cc(C=Nc2ccc(N3CCOCC3)cc2)c1O | inactive
9 | O=S(=O)(c1ccc(N2CCCC2)nc1)N1CCCC1 | inactive
10 | CC#CCN(CC#CC)S(=O)(=O)c1ccc(-n2cnnn2)c(OC)c1 | inactive
11 | CN(CCC#N)C(=O)COC(=O)c1ccccc1C(=O)c1ccc(Cl)c([N+](=O)[O-])c1 | inactive
12 | CC1(C)CC2CC(C)(CN2c2ncnc3ccccc23)C1 (configuration not stated) | inactive
13 | C=C(C)CSc1nnc(CCCCCNC(=O)OC(C)(C)C)o1 | inactive
14 | c1ccc(CN2CCN(c3nc4ccccc4n4cnnc34)CC2)cc1 | inactive
15 | O=C(N/N=C/c1ccsc1)c1c[nH]c2ccccc12 | inactive
16 | O=C(CSc1nc2ccccc2[nH]1)c1ccc2c(c1)OCO2 | inactive
17 | O=C(Nc1ccn(Cc2ccccc2)n1)c1n[nH]c([N+](=O)[O-])c1Cl | inactive
18 | Cc1csc(NC(=O)CSc2nc(C(C)C)nc3ccccc23)n1 | inactive
19 | CN(Cc1cccs1)c1ncnc2sccc12 | inactive
20 | NC(=S)N/N=C1/CCSc2ccc3ccccc3c21 | inactive
21 | Cc1ccc(S(=O)(=O)N2[C@@H](c3ccc(Cl)cc3)C(C(=O)O)=CC[C@H]2c2ccc(Cl)cc2)cc1 | inactive
22 | COc1cc(/C=C2/C(=O)c3cccc([N+](=O)[O-])c3C2=O)c(Br)cc1O | inactive

Row | SMILES | inhibition (negative values = inhibition)
23 | CCN(Cc1ccccc1)S(=O)(=O)c1cc(C(=O)NC2CCCCCC2)ccc1OC | inactive
24 | Oc1cccc(C(O)CNCc2ccc(OCc3ccc(Cl)cc3Cl)cc2)c1 (configuration not stated) | inactive
25 | C[C@H](NC(=O)OC(C)(C)C)c1nnc(SCC(=O)c2ccc(Cl)cc2)o1 | inactive
26 | O=C(COC(=O)CCCSc1nc2ccccc2[nH]1)NC(=O)NC1CCCC1 | inactive
27 | Cc1cc(-c2ccccc2)n(-c2ccc(C(=O)N3CCN(c4ncccn4)CC3)cc2)n1 | inactive
28 | Cc1ccc(N2NC(=O)/C(=C\c3cc4c(cc3[N+](=O)[O-])OCO4)C2=O)cc1C | inactive
29 | COc1ccccc1Nc1nnc(SCC2CCCCO2)s1 (configuration not stated) | inactive
30 | CCCc1cc(NCC2CCCO2)n2c(nc3ccccc32)c1C#N (configuration not stated) | inactive
31 | COc1cc(CNc2ccc(N3CCCCC3)cc2)ccc1OCC(=O)NC(C)(C)C | inactive
32 | COc1cc2c(cc1OC)-c1cc(NC3CCCCCCC3)nc(=O)n1CC2 | inactive
33 | C=CCSc1nc2ccccc2n1Cc1nnc(-c2cccs2)o1 | inactive
34 | COc1cc(/C=C2/C(=O)ON=C2c2ccccc2)ccc1O | inactive
35 | CCc1cc2c(N3CCN(c4nnc(CC)s4)CC3)ncnc2s1 | inactive
36 | O=C(c1c(O)c2ccccc2oc1=O)C1CCCCC1 | inactive
37 | CC1(C)CC(=O)C=C(Nc2cccc(Cl)c2Cl)C1 | inactive
38 | O=C(c1ccc(Cl)c(S(=O)(=O)N2CCCC2)c1)N1CCN(c2ccccc2)CC1 | inactive
39 | CCOCCCNC(=O)/C(C#N)=C/c1ccc([N+](=O)[O-])o1 | inactive
40 | Cc1cc(CN(C)C(=O)c2cc(COc3ccc(F)cc3Cl)on2)n[nH]1 | inactive
41 | CCCN(CCC)c1nc(N(CCC)CCC)[nH]c(=O)n1 | inactive
42 | C/C(=N/NC(=O)c1cc(Cl)ccc1O)C12CC3CC(CC(C3)C1)C2 | inactive
43 | CC(/C=N/NC(=O)c1cc(-c2ccncc2)nc2ccccc12)=C\c1ccco1 | inactive

Row | SMILES | inhibition (negative values = inhibition)
44 | CCOC(=O)Cc1csc(NS(=O)(=O)c2ccc3c4c(cccc24)C(=O)N3CC)n1 | inactive
45 | Cc1ccc(C(=O)NC2CCCCC2)cc1S(=O)(=O)N1CCCC1 | inactive
46 | COc1ccc(C(C(=O)NC2CCCCC2)N(C(=O)c2ccco2)c2ccccc2C(C)=O)cc1OC (configuration not stated) | inactive
47 | CCN(CC(=O)Nc1cccc(OC)c1)c1ncnc2sc(C)c(C)c12 | inactive
48 | Cc1cc(OC(C)C(=O)Nc2ccc(S(=O)(=O)Nc3onc(C)c3C)cc2)cc(C)c1Cl (configuration not stated) | inactive
49 | Cc1c(C(=O)OC(C)C)sc(NC(=O)c2cccnc2)c1C#N | inactive
50 | Oc1ccc(C[C@H]2NCCc3cc(O)c(O)cc32)cc1O | inactive
51 | COc1ccc(-n2c(=S)[nH]c3cc(C(=O)NCCCN4CCOCC4)ccc3c2=O)cc1 | inactive
52 | COCCCNC(=O)c1ccc(OC)c(OC2CCN(C(C)C)CC2)c1 | inactive
53 | CC(SCc1ccccc1)C(=O)N/N=C/c1ccc(OCC(=O)NCc2ccco2)cc1 (configuration not stated) | inactive
54 | COc1ccc(C2=Nn3c(nnc3C3CCCCC3)SC2)cc1OC | inactive
55 | CC1CCCCC1NC(=S)Nc1ccc(SC(F)F)cc1 (configuration not stated) | inactive
56 | COc1ccc(C/C(O)=C(\C#N)c2nc3ccccc3s2)cc1 | inactive
57 | COc1ccc(OC)c(/C=C2\SC(=S)N(NS(=O)(=O)c3ccccc3)C2=O)c1 | inactive
58 | O=C(Nc1ccccc1C(=O)NCCCN1CCOCC1)c1ccc(F)cc1 | inactive
59 | Cc1cc(Cl)ccc1OCCCC(=O)N1CCN(C(=O)c2ccco2)CC1 | inactive
60 | CC1CCCCC1NC(=O)Cn1nnc(-c2ccc(Cl)cc2)n1 (configuration not stated) | inactive
61 | CCS(=O)(=O)C1=NN2C(=N)/C(=C\c3ccc(OS(=O)(=O)c4ccccc4)cc3)C(=O)N=C2S1 | inactive
62 | CCc1cc2c(NCc3ccco3)ncnc2s1 | inactive
63 | Cc1ccc(C)c(OCC(=O)Nc2ccc(S(=O)(=O)Nc3ccccn3)cc2)c1C | inactive
64 | Cn1c(-c2sc3ccccc3c2Cl)n[nH]c1=S | inactive

Row | SMILES | inhibition (negative values = inhibition)
65 | CC1(C(=O)N2CCC(CC3CC(c4ccc(Cl)cc4)=NO3)(C(=O)NCC3CCCCC3)CC2)CC1 (configuration not stated) | inactive
66 | CCOC(=O)c1c(NC(=O)C2C3C=CC(C3)C2C(=O)O)sc2c1CCC(CC)C2 (configuration not stated) | inactive
67 | CC(/C=C1\SC(=S)N(NS(=O)(=O)c2ccccc2)C1=O)=C\c1ccccc1 | inactive
68 | O=C1ON=C(c2ccccc2)/C1=C/c1ccc(O)c(O)c1 | inactive
69 | CCN1CCn2c3c(c4cc(Cl)ccc42)CCCC31 (configuration not stated) | inactive
70 | CCOC(=O)N1CCC(NC(=O)C2CCCN(Cc3nc(-c4cccc(Cl)c4)oc3C)C2)CC1 (configuration not stated) | inactive
71 | O=C(NC1CCCCC1)C(c1ccc2ncccc2c1)N(Cc1ccccc1)C(=O)c1ccc2c(c1)OCCO2 (configuration not stated) | inactive
72 | O=C(C1CCCN(c2ncnc3c2nc2n3CCCCC2)C1)N1CCN(c2ccc(Cl)cc2)CC1 (configuration not stated) | inactive
73 | CC1CCCCC1NC(=O)c1c(O)nc2ccccn2c1=O (configuration not stated) | inactive
74 | O=C(CSc1nnc(-c2ccncc2)n1Cc1ccco1)c1ccc(Cl)cc1 | inactive
75 | Cc1ccc(S(=O)(=O)N2[C@@H](c3ccc(Cl)cc3)C(C(=O)O)=CC[C@H]2c2ccc(Cl)c(Cl)c2)cc1 | inactive
76 | O=C(O)C1CCN(c2nc(-c3ccccc3)nc3c2oc2ccccc23)CC1 | inactive
77 | COc1cc(NC(=O)c2csc(-c3ccncc3)n2)cc(C(=O)Nc2cccc(C(F)(F)F)c2)c1 | inactive
78 | C/C(=N\NS(=O)(=O)c1ccc(Cl)c([N+](=O)[O-])c1)c1cc2ccccc2o1 | inactive
79 | O=C1NC(c2ccccc2)=C(c2ccc3ccccc3n2)C(c2ccncc2)N1 (configuration not stated) | inactive
80 | CC(C)C(=O)Nc1cccc(NC(=O)c2ccc(Cl)cc2Cl)c1 | inactive
81 | CCOC(=O)c1sc(NC(=O)CCN2C(=O)c3cccc([N+](=O)[O-])c3C2=O)c(C(=O)OCC)c1C | inactive
82 | COc1cc(/C=C2\S/C(=N/S(=O)(=O)Cc3ccccc3)NC2=O)c([N+](=O)[O-])cc1OC | inactive
83 | CCCOc1ccc(C(CC(=O)O)NC(=O)c2sc3ccccc3c2Cl)cc1 (configuration not stated) | inactive
84 | CCCNc1nc2c(c(=O)n(C)c(=O)n2C)n1CCC(C)C | inactive
85 | N=c1n(Cc2ccccc2)c2ccccc2n1CC(O)COc1ccccc1 (configuration not stated) | inactive

same assay, conditions: HEK293-CHT, choline-induced depolarization, cells express LV-AA mutant CHT

Row | SMILES | IC50
86 | CCCn1nc(NS(=O)(=O)c2cccc3nonc23)c2cc3cccc(C)c3nc21 | 3.55 µM
87 | CC(C)c1nnc(NC(=O)c2nc(S(=O)(=O)Cc3ccccc3)ncc2Cl)s1 | 4.47 µM
